Holding throughout (format): cell-based, human
The test system of data set [1] is ME-180 cells. Nature of the data set: Toxicity & proliferation experiments, ME-180 cell counting. The settings on record: for effect on ME-180 cell growth: 1 nM, 10 nM, and 100 nM; for ME-180 cell number / cell growth versus no retinoic acid (negative control): 1 μM or 10 μM (micromolar concentrations). As for the experimental part:
Cell Lines. Human cervical epithelial cells (ME-180, ATCC) were propagated in culture at 37° C. in a 5% CO2 atmosphere in McCoy's 5A media (Invitrogen) with 10% heat-inactivated fetal bovine serum (Invitrogen). All trans-, 9-cis-, and 13-cis-retinoic acids were purchased from ICN Biomedicals. Retinoic acid stock solutions were made up in DMSO.
Toxicity & Proliferation Experiments. Cellular toxicity/proliferation experiments were performed by first washing the ME-180 cells with HBSS, and adding 3 mL of trypsin (0.25%) with EDTA to the T75 flask for 15 minutes. ME-180 cells in trypsin were added to 7 mL of McCoy's 5A media with 10% FBS. ME-180 cells were centrifuged for 5 minutes, and the supernatant was removed. ME-180 cells were resuspended in 10 mL of McCoy's 5A media with 10% FBS for counting. ME-180 cells were centrifuged for 5 minutes, and the supernatant was removed. ME-180 cells were resuspended at 6×10^4 cells per mL (62 mL total volume). One milliliter was added to each of 60 wells in a total of three 24-well plates. ME-180 cells were allowed to adhere to the wells overnight. The media was then removed from the ME-180 cells, and the cells were washed one time with 1 mL of HBSS. One mL of McCoy's 5A media with 10% FBS was added in duplicate on each plate containing the retinoic acids in various concentrations (0-10 μM). ME-180 cells in each plate were counted on day 1, 2, or 3 after the addition of the retinoic acid-containing media.
Cell counting. Media was removed from the ME-180 cells, and the cells were washed one time with 1 mL of HBSS. Trypsin was added (150 μL) to each well for ˜15 minutes to remove cells. One mL of McCoy's 5A media with 10% FBS was added to each well. ME-180 cells were mixed thoroughly and counted using a hemocytometer.
Cell Proliferation of ME-180 Cells. ME-180 cells were incubated with vitamin A derivatives for a period of up to 3 days. ME-180 cells were counted on each day.

In data set [2] the test system is P2Y2 receptor gene. Briefly: RT-PCR expression assay of P2Y2 in ME-180 cells. The settings on record: 100 nM. The method, then:
(§1) RNA Extraction from ME-180 cells. ME-180 cells were plated at 2×10^5 cells per T25 flask (5 mL total volume) and were allowed to propagate for four days. On day four, the media was removed. Five mL of McCoy's 5A media with 10% FBS containing 0, 10 nM, 100 nM, or 1 μM trans-retinoic acid were added to ME-180 cells in duplicate. ME-180 cells were incubated with these solutions for 4, 8, 16, or 24 hours. The media was removed, and 700 μL of lysis buffer was added to the flasks. The cells were scraped off of the flask with a cell scraper. The RNA was isolated using the Ambion RNAqueous kit according to the manufacturer's instructions. Precipitated RNA was resuspended in DEPC-treated water with 1 μL of RNase inhibitor. Total cervical RNA used as a control was purchased from Ambion, Inc.
(§2) Reverse Transcripton of RNA. Approximately 7 μL of RNA was incubated with 3 μL of primer at 80° C. for 10 minutes then immediately placed on ice. A master mix containing 4 μL DEPC water, 4 μL 5× reaction buffer, 1 μL dNTPs, 1 μL of RNase inhibitor, and 1 μL of reverse transcriptase was made for the reactions. Ten μL of master mix was added to the RNA/primer solution and placed at 42° C. for 2 hours. The resulting cDNA was incubated with 3.5 μL of NaOH solution at 70° C. for 10 minutes to hydrolyze the remaining RNA. Five μL of 0.5M Tris/EDTA was added to neutralize the solution. […]

In data set [3] the test system is estrogen receptor alpha (ER-α) gene. Nature of the data set: RT-PCR expression assay of ER-α in ME-180 cells. The settings on record: 100 nM, no serum, 4, 8, and 16 hours, FIG. 4 lanes 4-6, listed as vitamin A. As for the experimental part: as §1, with “Five mL of McCoy's 5A media with 10% FBS containing 0, 10 nM, 100 nM, or 1 μM trans-retinoic acid were added to ME-180 cells in duplicate.” left out
as §2, with “solution. To precipitate the cDNA, 125 μL of 3M NH4OAc, 5 μL of linear polyacrylamide, and 700 μL of absolute ethanol were added.” for “solution.”

Data set [4] concerns vascular endothelial growth factor (VEGF). Nature of the data set: RT-PCR expression assay of VEGF in ME-180 cells. The settings on record: 100 nM, 4, 8, and 16 hours, FIG. 5. The method, then: as §1, §2
The test system of data set [5] is mucin-4 (MUC-4). Nature of the data set: RT-PCR expression assay of mucin-4 in ME-180 cells. The settings on record: 100 nM, absence of serum. The method, then: as §1, with “Five mL of McCoy's 5A media with 10% FBS containing 0, 10 nM, 100 nM, or 1 μM trans-retinoic acid were added to ME-180 cells in duplicate.” left out
as §2, with “solution. To precipitate the cDNA, 125 μL of 3M NH4OAc, 5 μL of linear polyacrylamide, and 700 μL of absolute ethanol were added.” for “solution.”

“Also recorded” adds a separate entry of the source.

For the molecule `CC1=C(/C=C/C(C)=C\C=C\C(C)=C\C(=O)O)C(C)(C)CCC1` [9-cis-retinoic acid], the “effect on ME-180 cell growth” value in data set [1] (up to 3 days, FIG. 1) is “little effect on cell growth”.
For the molecule `CC1=C(/C=C/C(C)=C/C=C/C(C)=C\C(=O)O)C(C)(C)CCC1` [13-cis-retinoic acid], the “effect on ME-180 cell growth” value in data set [1] (up to 3 days, FIG. 1) is on record as “little effect on cell growth”. Besides, the “toxicity to ME-180 cells” value in data set [1] (micromolar concentrations) is given as “toxic”. In addition, the “ME-180 cell growth versus negative control” value in data set [1] (micromolar concentrations, two days, FIG. 2) is given as “did not grow as well as the negative control”.
Regarding `CC1=C(/C=C/C(C)=C/C=C/C(C)=C/C(=O)O)C(C)(C)CCC1` [trans-retinoic acid], in data set [1], the “toxicity (overall conclusion of the experiments)” value is “nontoxic”. Besides, the “growth compared with cells exposed to other agents or to no agents” value in data set [1] (1 nM to 100 nM, up to 3 days, FIG. 1) was “growing slightly faster”. For the same molecule, the “effect on ME-180 cell growth” value in data set [1] (up to 3 days, FIG. 1) is “little effect on cell growth”. Also, the “ME-180 cell number / cell growth versus no retinoic acid (negative control)” value in data set [1] (two days, FIG. 2) is listed as “more cells were present”; in data set [1] (two days, FIG. 2, listed as Vitamin A) it was “increases cervical cell growth”. Moreover, the “P2Y2 expression (PCR product)” value in data set [2] (in the absence of serum, FIG. 3 lanes 8-11) was “increase in P2Y2 expression”; in data set [2] (in the presence of serum, FIG. 3 lanes 4-6), “increase in P2Y2 expression”. Also, the “ER-α gene expression (PCR product)” value in data set [3] is on record as “the ER-α gene was expressed; also recorded: increase in ER-α expression”. For the same molecule, in data set [4], the “VEGF expression (PCR product)” value is “increased the expression”. The “MUC-4 expression (PCR product)” value in data set [5] (4 hours or 8 hours, FIG. 6 lanes 4 and 5) was “detectable”; in data set [5] (16 hours, FIG. 6 lane 6) it was “decreases but is still detectable”.

Source of the values: patent US20040063787A1, “Vaginal health products” (priority 2002, published 2004).
